In the first assay the test system is 1083 (donor line of iPSC-derived cardiomyocytes). Description: POD (EC05) for decrease in beat frequency (negative chronotrope) vs vehicle; higher = less potent (higher point of departure). The note with it: exposure time: 90 min. The method, then: (§1)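 Human iPSC-derived cardiomyocytes from 16 donors were exposed for 90 min at 37 °C to each PFAS at 0.1, 1, 10 and 100 µM in 0.5% DMSO, 384-well plates. Kinetic Ca2+ flux (FLIPR) and Hoechst nuclei counts were normalised to vehicle wells and fitted with a hierarchical Bayesian Hill model to give donor-specific PODs: EC05 for beat-rate increase or decrease and for decay-to-rise ratio increase (QT proxy), EC95 for peak-frequency loss (asystole), EC10 for total cell number loss. 0.03 µM is the lower bound.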
`OCCC(F)(F)C(F)(F)C(F)(F)C(F)(F)C(F)(F)C(F)(F)F` [6:2 Fluorotelomer alcohol] displayed a POD vs vehicle of 58.7 µM.

Take `O=S(=O)(O)CCC(F)(F)C(F)(F)C(F)(F)C(F)(F)C(F)(F)C(F)(F)F` [6:2 Fluorotelomer sulfonic acid]: the POD vs vehicle was more than 100 µM.

`OCCC(F)(F)C(F)(F)C(F)(F)C(F)(F)C(F)(F)C(F)(F)C(F)(F)C(F)(F)F` [8:2 Fluorotelomer alcohol]: the POD vs vehicle was more than 100 µM.

Regarding `O=S(=O)(O)CCC(F)(F)C(F)(F)C(F)(F)C(F)(F)C(F)(F)C(F)(F)C(F)(F)C(F)(F)F` [8:2 Fluorotelomer sulfonic acid], the POD vs vehicle is more than 100 µM.

On to `O=C(O)C(F)(F)C(F)(F)C(F)(F)C(F)(F)C(F)(F)C(F)(F)C(F)(F)C(F)(F)Cl` [9-Chloro-perfluorononanoic_acid], for which the POD vs vehicle was more than 100 µM.

Molecule `O=P(O)(O)CCC(F)(F)C(F)(F)C(F)(F)C(F)(F)C(F)(F)C(F)(F)C(F)(F)C(F)(F)F` [((Perfluorooctyl)ethyl)phosphonic_acid] had a POD vs vehicle of more than 100 µM.

The molecule `O=C([O-])C(F)(F)C(F)(F)C(F)(F)C(F)(F)C(F)(F)C(F)(F)C(F)(F)F.[NH4+]` [Ammonium_perfluorooctanoate] came in with a POD vs vehicle of more than 100 µM.

In turn, `OCC(F)(F)C(F)(F)C(F)(F)C(F)(F)C(F)(F)C(F)F` [Dodecafluoroheptanol] came in with a POD vs vehicle of 15.3 µM.

Regarding `OCC(F)(F)OC(F)(F)C(F)(F)OC(F)(F)C(F)(F)OC(F)(F)F` [Fluorinated_triethylene_glycol_monomethyl_ether], the POD vs vehicle was more than 100 µM.

`OCC(F)(F)C(F)(F)C(F)(F)F` [Heptafluorobutanol]: the POD vs vehicle was more than 100 µM.

The molecule `OCC(F)(F)C(F)(F)C(F)(F)CO` [Hexafluoroamylene_glycol] showed a POD vs vehicle of more than 100 µM.

Regarding `COC(=O)C(F)(F)C(F)(F)OC(F)(C(F)(F)F)C(F)(F)OC(F)=C(F)F` (configuration not stated) [Methyl_perfluoro(3-(1-ethenyloxypropan-2-yloxy)propanoate)], the POD vs vehicle is more than 100 µM.

Molecule `NC(=O)C(F)(F)C(F)(F)C(F)(F)C(F)(F)F` [Nonafluoropentanamide] displayed a POD vs vehicle of more than 100 µM.

With `NC(=O)C(F)(F)C(F)(F)C(F)(F)C(F)(F)C(N)=O` [Octafluoroadipamide], the POD vs vehicle was more than 100 µM.

With `O=C(O)C(F)(F)C(F)(F)C(F)(F)C(F)(F)C(=O)O` [Octafluoroadipic_acid], the POD vs vehicle is more than 100 µM.

Molecule `O=C(O)C(F)(F)C(F)(F)C(F)(F)OC(F)(F)F` [Perfluoro(4-methoxybutanoic)_acid] yielded a POD vs vehicle of more than 100 µM.

For `O=C(O)C(F)(F)OC(F)(F)C(F)(F)OC(F)(F)C(F)(F)OC(F)(F)C(F)(F)C(F)(F)C(F)(F)F` [Perfluoro-3,6,9-trioxatridecanoic_acid], the POD vs vehicle was found to be 21.8 µM.

As to `O=C(O)C(F)(F)OC(F)(F)C(F)(F)OC(F)(F)F` [Perfluoro-3,6-dioxaheptanoic_acid], the POD vs vehicle is more than 100 µM.

`O=C(O)C(F)(F)OC(F)(F)C(F)(F)OC(F)(F)C(=O)O` [Perfluoro-3,6-dioxaoctane-1,8-dioic_acid] displayed a POD vs vehicle of more than 100 µM.

In another assay the test system is 30171 (donor line of iPSC-derived cardiomyocytes). Described as above. The note with it: exposure time: 90 min. The method, then: as §1
`OCCC(F)(F)C(F)(F)C(F)(F)C(F)(F)C(F)(F)C(F)(F)F` [6:2 Fluorotelomer alcohol]: the POD vs vehicle is more than 100 µM.

`O=S(=O)(O)CCC(F)(F)C(F)(F)C(F)(F)C(F)(F)C(F)(F)C(F)(F)F` [6:2 Fluorotelomer sulfonic acid] yielded a POD vs vehicle of 24.5 µM.

Take `OCCC(F)(F)C(F)(F)C(F)(F)C(F)(F)C(F)(F)C(F)(F)C(F)(F)C(F)(F)F` [8:2 Fluorotelomer alcohol]: the POD vs vehicle was more than 100 µM.

`O=S(=O)(O)CCC(F)(F)C(F)(F)C(F)(F)C(F)(F)C(F)(F)C(F)(F)C(F)(F)C(F)(F)F` [8:2 Fluorotelomer sulfonic acid] returned a POD vs vehicle of 6.39 µM.

`O=C(O)C(F)(F)C(F)(F)C(F)(F)C(F)(F)C(F)(F)C(F)(F)C(F)(F)C(F)(F)Cl` [9-Chloro-perfluorononanoic_acid] came in with a POD vs vehicle of 6.24 µM.

In the case of `O=P(O)(O)CCC(F)(F)C(F)(F)C(F)(F)C(F)(F)C(F)(F)C(F)(F)C(F)(F)C(F)(F)F` [((Perfluorooctyl)ethyl)phosphonic_acid], the POD vs vehicle is more than 100 µM.

In turn, `O=C([O-])C(F)(F)C(F)(F)C(F)(F)C(F)(F)C(F)(F)C(F)(F)C(F)(F)F.[NH4+]` [Ammonium_perfluorooctanoate] yielded a POD vs vehicle of 7.16 µM.

In the case of `OCC(F)(F)C(F)(F)C(F)(F)C(F)(F)C(F)(F)C(F)F` [Dodecafluoroheptanol], the POD vs vehicle turned out to be 20.1 µM.

For `OCC(F)(F)OC(F)(F)C(F)(F)OC(F)(F)C(F)(F)OC(F)(F)F` [Fluorinated_triethylene_glycol_monomethyl_ether], the POD vs vehicle was more than 100 µM.

For the molecule `OCC(F)(F)C(F)(F)C(F)(F)F` [Heptafluorobutanol], the POD vs vehicle is more than 100 µM.

On to `OCC(F)(F)C(F)(F)C(F)(F)CO` [Hexafluoroamylene_glycol], for which the POD vs vehicle is more than 100 µM.

The molecule `COC(=O)C(F)(F)C(F)(F)OC(F)(C(F)(F)F)C(F)(F)OC(F)=C(F)F` (configuration not stated) [Methyl_perfluoro(3-(1-ethenyloxypropan-2-yloxy)propanoate)] came in with a POD vs vehicle of more than 100 µM.

As for `NC(=O)C(F)(F)C(F)(F)C(F)(F)C(F)(F)F` [Nonafluoropentanamide], the POD vs vehicle was more than 100 µM.

Consider `NC(=O)C(F)(F)C(F)(F)C(F)(F)C(F)(F)C(N)=O` [Octafluoroadipamide], for which the POD vs vehicle was more than 100 µM.

Take `O=C(O)C(F)(F)C(F)(F)C(F)(F)C(F)(F)C(=O)O` [Octafluoroadipic_acid]: the POD vs vehicle is more than 100 µM.

For the molecule `O=C(O)C(F)(F)C(F)(F)C(F)(F)OC(F)(F)F` [Perfluoro(4-methoxybutanoic)_acid], the POD vs vehicle is more than 100 µM.

For `O=C(O)C(F)(F)OC(F)(F)C(F)(F)OC(F)(F)C(F)(F)OC(F)(F)C(F)(F)C(F)(F)C(F)(F)F` [Perfluoro-3,6,9-trioxatridecanoic_acid], the POD vs vehicle was determined as 20.7 µM.

The molecule `O=C(O)C(F)(F)OC(F)(F)C(F)(F)OC(F)(F)F` [Perfluoro-3,6-dioxaheptanoic_acid] showed a POD vs vehicle of more than 100 µM.

The molecule `O=C(O)C(F)(F)OC(F)(F)C(F)(F)OC(F)(F)C(=O)O` [Perfluoro-3,6-dioxaoctane-1,8-dioic_acid] registered a POD vs vehicle of more than 100 µM.

The next assay has as its system 1392 (donor line of iPSC-derived cardiomyocytes). The assay is described as above. The note with it: exposure time: 90 min. The method, then: as §1
The molecule `OCCC(F)(F)C(F)(F)C(F)(F)C(F)(F)C(F)(F)C(F)(F)F` [6:2 Fluorotelomer alcohol] had a POD vs vehicle of more than 100 µM.

For `O=S(=O)(O)CCC(F)(F)C(F)(F)C(F)(F)C(F)(F)C(F)(F)C(F)(F)F` [6:2 Fluorotelomer sulfonic acid], the POD vs vehicle is more than 100 µM.

In turn, `OCCC(F)(F)C(F)(F)C(F)(F)C(F)(F)C(F)(F)C(F)(F)C(F)(F)C(F)(F)F` [8:2 Fluorotelomer alcohol] registered a POD vs vehicle of more than 100 µM.

For `O=S(=O)(O)CCC(F)(F)C(F)(F)C(F)(F)C(F)(F)C(F)(F)C(F)(F)C(F)(F)C(F)(F)F` [8:2 Fluorotelomer sulfonic acid], the POD vs vehicle was more than 100 µM.

Take `O=C(O)C(F)(F)C(F)(F)C(F)(F)C(F)(F)C(F)(F)C(F)(F)C(F)(F)C(F)(F)Cl` [9-Chloro-perfluorononanoic_acid]: the POD vs vehicle is more than 100 µM.

The molecule `O=P(O)(O)CCC(F)(F)C(F)(F)C(F)(F)C(F)(F)C(F)(F)C(F)(F)C(F)(F)C(F)(F)F` [((Perfluorooctyl)ethyl)phosphonic_acid] showed a POD vs vehicle of more than 100 µM.

In the case of `O=C([O-])C(F)(F)C(F)(F)C(F)(F)C(F)(F)C(F)(F)C(F)(F)C(F)(F)F.[NH4+]` [Ammonium_perfluorooctanoate], the POD vs vehicle was more than 100 µM.

On to `OCC(F)(F)C(F)(F)C(F)(F)C(F)(F)C(F)(F)C(F)F` [Dodecafluoroheptanol], for which the POD vs vehicle stood at 18 µM.

In the case of `OCC(F)(F)OC(F)(F)C(F)(F)OC(F)(F)C(F)(F)OC(F)(F)F` [Fluorinated_triethylene_glycol_monomethyl_ether], the POD vs vehicle was more than 100 µM.

These data come from the supplement of paper PMC11368000.
